The values below come from ChEMBL document CHEMBL1133459, “Adenosine kinase inhibitors. 1. Synthesis, enzyme inhibition, and antiseizure activity of 5-iodotubercidin analogues” (J Med Chem, 2000).

For the first assay, the target named is Adenosine kinase (Homo sapiens, UniProt P55263). Put plainly: Inhibition of recombinant human adenosine kinase.
Chain of Adenosine kinase (P55263 whole entry): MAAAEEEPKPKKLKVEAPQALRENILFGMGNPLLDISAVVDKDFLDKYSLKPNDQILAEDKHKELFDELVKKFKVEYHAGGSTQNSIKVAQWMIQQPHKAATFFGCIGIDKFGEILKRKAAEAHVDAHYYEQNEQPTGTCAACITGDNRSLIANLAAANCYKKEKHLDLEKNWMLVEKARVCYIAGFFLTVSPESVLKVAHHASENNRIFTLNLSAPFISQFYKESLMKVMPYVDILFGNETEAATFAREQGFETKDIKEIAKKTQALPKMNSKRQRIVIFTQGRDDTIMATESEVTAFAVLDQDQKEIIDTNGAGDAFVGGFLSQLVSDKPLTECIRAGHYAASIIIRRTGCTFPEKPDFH
As a reminder, the IC50 is the concentration at which inhibition is half-maximal. Turning to `CNc1ncnc2c1c(I)cn2[C@@H]1O[C@H](CO)[C@@H](O)[C@H]1O`, the IC50 turned out to be 1200 nM. `NC[C@H]1O[C@@H](n2ccc3c(N)ncnc32)[C@H](O)[C@@H]1O`: the IC50 amounted to 13000 nM. For `C=C[C@H]1O[C@@H](n2cc(I)c3c(N)ncnc32)[C@H](O)[C@@H]1O`, the IC50 was determined as 100 nM.

Consider `CC[C@H]1O[C@@H](n2cc(I)c3c(N)ncnc32)[C@H](O)[C@@H]1O`, for which the IC50 was determined as 60 nM. With `C=CCSc1ncnc2c1c(I)cn2[C@@H]1O[C@H](C)[C@@H](O)[C@H]1O`, the IC50 is 2800 nM. Take `CSc1ncnc2c1c(I)cn2[C@@H]1O[C@H](C)[C@@H](O)[C@H]1O`: the 50% inhibitory concentration (IC50) came to 45 nM. `NC[C@H]1O[C@@H](n2cc(I)c3c(N)ncnc32)[C@H](O)[C@@H]1O`: the IC50 stood at 0.6 nM. On to `COC[C@H]1O[C@@H](n2cc(I)c3c(N)ncnc32)[C@H](O)[C@@H]1O`, for which the IC50 stood at 1200 nM. For the compound `C[C@H]1O[C@@H](n2cc(Br)c3c(Cl)ncnc32)[C@H](O)[C@@H]1O`, the IC50 was 50 nM.

Turning to `OC[C@H]1O[C@@H](n2cc(I)c3c(Cl)ncnc32)[C@H](O)[C@@H]1O`, the IC50 came to 24 nM. Same read-out and setting: next, `CC[C@H]1O[C@@H](n2cc(Br)c3c(N)ncnc32)[C@H](O)[C@@H]1O`: 500 nM; `CSc1cn([C@@H]2O[C@H](C)[C@@H](O)[C@H]2O)c2ncnc(Cl)c12`: 70 nM. With `C[C@H]1O[C@@H](n2cc(I)c3c(=S)[nH]cnc32)[C@H](O)[C@@H]1O`, the IC50 was 6500 nM. Same read-out and setting: next, `[N-]=[N+]=NC[C@H]1O[C@@H](n2cc(Br)c3c(Cl)ncnc32)[C@H](O)[C@@H]1O`: 100 nM. Same read-out and setting: next, `C[C@H]1O[C@@H](n2cc(I)c3c(SCc4ccccc4)ncnc32)[C@H](O)[C@@H]1O`: 1000 nM; `N#Cc1cn([C@@H]2O[C@H](CO)[C@@H](O)[C@H]2O)c2ncnc(N)c12` [TOYOCAMYCIN]: 310 nM.

Take `C[C@H]1O[C@@H](n2cc(C#N)c3c(N)ncnc32)[C@H](O)[C@@H]1O`: the IC50 was 310 nM. Still for that read-out and setting: next, `[N-]=[N+]=NC[C@H]1O[C@@H](n2cc(Br)c3c(N)ncnc32)[C@H](O)[C@@H]1O`: 63 nM.

As to `C[C@H]1O[C@@H](n2cc(I)c3c(Cl)ncnc32)[C@H](O)[C@@H]1O`, the concentration for half-maximal inhibition (IC50) was 3 nM.

`Nc1ncnc2c1c(Cl)cn2[C@@H]1O[C@H](CO)[C@@H](O)[C@H]1O`: the IC50 came out at 210 nM. For the compound `C[C@H]1O[C@@H](n2cc(I)c3c(SCc4ccc([N+](=O)[O-])cc4)ncnc32)[C@H](O)[C@@H]1O`, the IC50 was 2000 nM. As for `[N-]=[N+]=NC[C@H]1O[C@@H](n2cc(I)c3c(N)ncnc32)[C@H](O)[C@@H]1O`, the IC50 came out at 35 nM.

Consider `Nc1ncnc2c1c(Br)cn2[C@@H]1O[C@H](CO)[C@@H](O)[C@H]1O`, for which the IC50 came out at 120 nM.

`NC[C@H]1O[C@@H](n2cc(I)c3c(Cl)ncnc32)[C@H](O)[C@@H]1O`: the IC50 came out at 0.1 nM. With `NC[C@H]1O[C@@H](n2cnc3c(N)ncnc32)[C@H](O)[C@@H]1O`, the IC50 turned out to be 170 nM. Regarding `CSc1cn([C@@H]2O[C@H](C)[C@@H](O)[C@H]2O)c2ncnc(N)c12`, the IC50 worked out at 1350 nM. In the case of `NC[C@H]1O[C@@H](n2cc(Br)c3c(N)ncnc32)[C@H](O)[C@@H]1O`, the IC50 stood at 0.2 nM. With `CCCCSc1ncnc2c1c(I)cn2[C@@H]1O[C@H](C)[C@@H](O)[C@H]1O`, the IC50 turned out to be 1000 nM.

On to `Cc1cn([C@@H]2O[C@H](C)[C@@H](O)[C@H]2O)c2ncnc(Cl)c12`, for which the IC50 stood at 535 nM. On the same count and under the same terms, next, `[N-]=[N+]=NC[C@H]1O[C@@H](n2cc(I)c3c(Cl)ncnc32)[C@H](O)[C@@H]1O`: 9 nM; `Nc1ncnc2c1ccn2[C@@H]1O[C@H](CO)[C@@H](O)[C@H]1O` [TUBERCIDIN]: 10000 nM.

The species named for a further assay is Rattus norvegicus. In words: Evaluated for antiseizure activity in rat maximal electric shock (MES) seizure model and represented as ED50. In kind it is functional.
In general, ED50 refers to the midpoint of the dose-response relation. Compound `C[C@H]1O[C@@H](n2cc(Br)c3c(N)ncnc32)[C@H](O)[C@@H]1O` displayed an ED50 of under 3.7 mg/kg. `NC[C@H]1O[C@@H](n2cc(I)c3c(N)ncnc32)[C@H](O)[C@@H]1O` registered an ED50 of 7.1 mg/kg. For `C[C@H]1O[C@@H](n2cc(I)c3c(N)ncnc32)[C@H](O)[C@@H]1O` [5-IODO,5'-DEOXYTUBERCIDIN], the ED50 is 0.3 mg/kg. `Nc1ncnc2c1c(I)cn2[C@@H]1O[C@H](CO)[C@@H](O)[C@H]1O` [IODOTUBERCIDIN] had an ED50 of 6 mg/kg. Same read-out and setting: next, `NC[C@H]1O[C@@H](n2cc(Br)c3c(N)ncnc32)[C@H](O)[C@@H]1O`: 4.2 mg/kg.
